Marks after values point to notes of the source that are not given here.

Consider 2 compounds from patent US8916607B2, “Use of piperphentonamine or salts thereof in manufacture of medicaments for treating brain diseases” (Guangzhou Municipal Zhongwei Biotechnology Limited Company, priority 2009, dated 2014).

The test system of test [1] is infectious cerebral edema of rats (pertussis bacteria liquid). In words: infectious cerebral edema: brain water content and Evans blue content, combination with nimodipine. The following applies: JBTA pretreatment 0.5 mg/kg iv, 2 times. The class given is in vivo, SD rats. As to the method:
The model of infectious cerebral edema is same with example 4. It is Studied that piperphentonamine hydrochloride and a blocker for specificity L-type calcium ion channel nimodipine influence on the brain water content and Evans blue (EB) content of infectious cerebral edema, of which the purpose is to provide experimental and theoretical basis for clinical treatment.
Each group is further divided into three time group such as 30 min, 4 h and 24 h group.
Injecting intravenously nimodipine after injecting bacteria for 5 min (Nim group, body weight 0.25 mg/kg), 24 h nimodipine treatment group is repeatedly injected the same dose once per 8 h; nimodipine treatment group pretreated by piperphentonamine hydrochloride is intravenously infused piperphentonamine hydrochloride (0.5 mg/kg, 2 times in total) before experimenting for 48 h and 24 h, then treated with nimodipine after the pretreatment. The operation of physiological saline group being same as bacteria liquid group, is injected the same volume of physiological saline at the same time. 2% Evans blue (EB, 0.2 mL/100 g body weight) is injected from the vein of the sublingua after injecting bacteria or saline in 10 min. Each group of animal is executed by decollating after observing to the specified time, rapidly removed the brain, and remove the leptomeninges and coagulation block of the cortical surface, taking full-thickness brain tissue of the back ⅓ of left hemisphere of the brain (about 0.1˜0.2 g, including gray matter and white matter) as specimens, the water content in brain tissue and the Evans blue content are determined by the dry wet method, and brain tissue is examined by electron microscope.

Test [2] relates to cerebral hemorrhage in rats induced by collagenase. In words: cerebral hemorrhage (ICH) model induced by collagenase: neurology score. The format is in vivo, Wistar rats. The procedure: (§1) Animals are randomly divided into five groups: sham operation 24 h group; cerebral hemorrhage (Intracerebral Haemorrhage, ICH)+physiological saline group (model); ICH+piperphentonamine hydrochloride (JBTA, 2 mg/kg) group, called as high dose group (h); ICH+piperphentonamine hydrochloride (JBTA, 0.5 mg/kg) group, called as low dose group (1); ICH+nimodipine (Nim, 0.5 mg/kg) group. The last four groups are divided into 4 h, 8 h, 12 h, 24 h as four time subgroups respectively. Physiological saline solution, piperphentonamine hydrochloride and nimodipine are intravenously injected from rat tail before the ICH model is established for 30 minutes, once a day. Injecting slowly, the total amount of drug liquid is controlled in 1 ml/200 g body weight: physiological saline solution also being administered in 1 ml/200 g body weight. Each group has 7 Wistar rats.
The specific steps are as following: after the experimental rats are anesthetized by injecting chloral hydrate (350 mg/kg) in intraperitoneal, and being supinely immobilized in a stereotaxic instrument, and make the rat anterior fontanelle and posterior fontanelle in the same plane according to localization method reported by BAO Xinmin, etc. Being locally disinfected by iodine, incising in the midmost of scalp, scissoring the periosteum, exposing the anterior fontanelle, drilling a 1 mm diameter hole with thickness close to duramater in 3 mm left to the midline by number five needle. Inserting needle along the hole by the micro syringe fixed on a stereotaxic, the depth of needle insertion is 5.8 mm (i.e., the caudate nucleus position), slowly injecting collagenase VI 0.5 U. Injection time is 3 min, keeping for 5 min after injection, then pull the needle out, suturing the skin, and putting the rat into cage and feed. Inserting the needle and not injecting drugs in sham operation group, the remaining operations is the same as the above.
After animals wake up, scoring nerve function defect of each group immediately according to the grading classification standards of nerve defect reported by Bedersog (litter improved).
Choosing the animals with the score of 3 and more into the experiment, the animals are bred in different cages, eat and drink normally. Temperature is controlled in 20 to 25° C., score in 4 h, 8 h, 12 h, 24 h after establishment of the model.
(§2) Divide the animals randomly into five groups: sham operation (sham) 24 h group; ICH+normal saline group (model); ICH+piperphentonamine maleate (4 mg/kg) group, namely high dose group (h); ICH+piperphentonamine maleate (2 mg/kg) group, namely low dose group (1); ICH+nimodipine (0.5 mg/kg) group. The last four groups were divided into four time subgroup of 4 h, 8 h, 12 h and 24 h. Physiological solution, piperphentonamine maleate and nimodipine were injected intravenous from rat tail vein 30 minutes before the ICH model made, once a day. Inject slowly, the total amount of drug liquid was controlled in 1 ml/200 g body weight: normal saline was also administered in 1 ml/200 g body weight. Each group has seven Wistar rats.

Test [3] has the same test system. In words: ICH model induced by collagenase: brain water content (BWC). The class given is in vivo, Wistar rats. The procedure:
as §1
Observing the influence of piperphentonamine hydrochloride on the brain water content of intracerebral hemorrhage in rats in 4 h, 8 h, 12 h, 24 h, the animals of the different groups is anesthetized by chloral hydrate at predetermined time point, and decollating and taking the brain rapidly, putting the brain tissue on a filter paper wetted by saline solution to prevent water evaporating. Removing the leptomeninges and blood, cutting and taking the front half portion of brain tissue centered by the hole for the insertion needle, weighing precisely (accurate to 0.1 mg). It is controlled in 5 min to take the brain to finish weigh. Then putting in 95° C. constant temperature oven for 24 h, weighing the dry weight. The brain water content is calculated according to Blliot formula: BWC=(wet weight−dry weight)/wet weight×100%.
as §2

For test [4] the test system is unchanged. In words: ICH model induced by collagenase: NE in brain tissue by ELISA. The format is in vivo, Wistar rats. The text has this:
Rats in each group were anesthetized by chloral hydrate, decollated rapidly and the brains were taken out. The brain tissue around the hole was cut and procured, weighed precisely, and made into a 10% tissue homogenate using a glass homogenizer in an ice bath environment with physiological saline as homogenized medium, the supernatant of which was taken to be determined the NE activity using ELISA method.
(In general: In an ELISA, binding on a coated surface is turned into a signal by an enzyme label.)

Test [5] shares this test system. In words: ICH model induced by collagenase: NO in brain tissue by nitrate reductase method. The class given is in vivo, Wistar rats. The text has this:
Rats in each group were anesthetized by chloral hydrate, decollated rapidly and the brain take were taken out. The brain tissue around the hole was cut and procured, weighed precisely, and made into a 10% tissue homogenate using a glass homogenizer in an ice bath environment with physiological saline as homogenized medium, the supernatant of which was taken to be determined the content of NO by nitrate reductase method.

For test [6] the test system is unchanged. In words: ICH model induced by collagenase: histopathological observation. The class given is in vivo, Wistar rats. The procedure: Influence of piperphentonamine hydrochloride on pathological morphology of cerebral hemorrhage in rats was observed. Each group animals were selected randomly, anesthetized deeply by chloral hydrate at predetermined time point, decollated and the brain were taken out rapidly, then, the brain tissue slices with hematoma (about 5 mm) were cut, and put into 10% formaldehyde solution immediately, fixed for 24 h followed by dehydration by graded ethanol, transparentizing by xylene, immersing in paraffin, embedding, slicing (5 μm), HE staining and sealing. The pathological changes area and the pathological change of the adjacent brain tissue were observed by optical microscope.

The test system of test [7] is cerebral hemorrhage of rats (autologous blood). In words: cerebral hemorrhage by autologous blood into caudate nucleus: edema (dry-wet weight) and forelimb placement. The format is in vivo, SD rats. The following applies: local administering 3 h after hemorrhage. As to the method:
Adult male SD rats were divided randomly into normal saline group, cerebral hemorrhage group and piperphentonamine maleate group. A model of cerebral hemorrhage was established by the methods of injecting 50 μl autologous blood into caudate nucleus of rats, wherein, the position of caudate nucleus was determined according to “the rat cerebral in stereotaxic atlas”: the injection position is at the point of front to anterior fontanelle of 0.2 mm, right to the sagittal suture of 3.0 mm, depth of 6.3 mm. The change of cerebral edema was observed by the dry-wet weight method; the behavior was observed by forelimb placement experiment. The cerebral hemorrhage group was only injected without medicine, with the treatment time of at 3 h after hemorrhage. The edema measurement time was in 1, 2, 3, 7, 14 days after hemorrhage, the behavioral observation time phase was in 1, 2, 3, 7, 14, 28 days after hemorrhage, each group of each time phase had 6 rats.

Setting [8] is: 24 h, Nim 0.25 mg/kg iv once per 8 h.
Setting [9] is: 0.5 mg/kg iv 30 min before ICH, 4 h.
[10] abbreviates: 0.5 mg/kg iv 30 min before ICH, 8 h.
The mark [11] stands for this setting: 0.5 mg/kg iv 30 min before ICH, 8 h (example 12).
Setting [12] is: 0.5 mg/kg iv 30 min before ICH, 12 h.
The mark [13] stands for this setting: 0.5 mg/kg iv 30 min before ICH, 12 h (example 12).
Setting [14] is: 0.5 mg/kg iv 30 min before ICH, 24 h.
Setting [15] is: 0.5 mg/kg iv 30 min before ICH, 24 h (example 12).
[16] abbreviates: 2 mg/kg iv 30 min before ICH, 4 h (example 12).
[17] abbreviates: 2 mg/kg iv 30 min before ICH, 8 h (example 12).
[18] abbreviates: 2 mg/kg iv 30 min before ICH, 12 h (example 12).
[19] abbreviates: 2 mg/kg iv 30 min before ICH, 24 h (example 12).
Where [20] appears, read: 4 mg/kg iv 30 min before ICH, 8 h.
[21] abbreviates: 4 mg/kg iv 30 min before ICH, 12 h.
Setting [22] is: 4 mg/kg iv 30 min before ICH, 24 h.

Turning to `COCCOC(=O)C1=C(C)NC(C)=C(C(=O)OC(C)C)C1c1cccc([N+](=O)[O-])c1` (stereo not drawn) [nimodipine, reference compound], the “BWC(%)” value in test [1] (30 min, Nim 0.25 mg/kg iv) was 77.26 ± 0.34 %; in test [1] (4 h, Nim 0.25 mg/kg iv), 77.15 ± 0.66 %; in test [1] (setting [8]), 76.98 ± 0.50 %. Besides, the EB in test [1] (30 min, Nim 0.25 mg/kg iv) was 2.0 ± 0.18 μg/g ww; in test [1] (4 h, Nim 0.25 mg/kg iv) it was 2.65 ± 0.44 μg/g ww; in test [1] (setting [8]) it was 2.00 ± 0.6 μg/g ww. Also, the neurological score worked out at 4.5 ± 0.87 in test [2] (setting [9]); 3.65 ± 0.8 in test [2] (0.5 mg/kg iv 30 min before ICH, 4 h (example 12)); 4.07 ± 1.14 in test [2] (setting [10]); 3.25 ± 0.91 in test [2] (setting [11]); 2.57 ± 1.14 in test [2] (setting [12]); 2.05 ± 0.91 in test [2] (setting [13]). Further, the neurological score in test [2] (setting [14]) is on record as 1.94 ± 0.74; in test [2] (setting [15]), 1.55 ± 0.59**^Δ. In addition, the “brain water content (%)” value in test [3] (setting [9]) is recorded as 79.31 ± 0.76 %; in test [3] (setting [10]), 79.95 ± 0.36^Δ** %; in test [3] (setting [12]) it was 81.35 ± 0.71^ΔΔ** %; in test [3] (setting [14]) it was 82.89 ± 0.68^ΔΔ** %. For the same compound, the brain water content in test [3] (0.5 mg/kg iv 30 min before ICH, 4 h (example 12), in %) is on record as 62.20 ± 0.59; in test [3] (setting [11]), 62.70 ±0.25^Δ**; in test [3] (setting [13]) it was 63.8 ± 0.56^ΔΔ**; in test [3] (setting [15]) it was 65.02 ± 0.54^ΔΔ**. Also, the NE in test [4] (0.5 mg/kg, ICH rat brain tissue homogenate) is reported as 1.88 ± 0.035^a ng/ml. Also, in test [5] (0.5 mg/kg, ICH rat brain tissue), the NO is 2.40 ± 0.05^Δ μmol/g pro.

For `CN(CCC(=O)/C=C/c1ccc(O)cc1)CCc1ccc2c(c1)OCO2.O=C(O)/C=C\C(=O)O` [piperphentonamine maleate], the neurological score in test [2] (setting [16]) is on record as 3.61 ± 0.7; in test [2] (setting [17]) it was 3.43 ± 0.82; in test [2] (setting [18]) it was 2.92 ± 0.95; in test [2] (setting [19]), 2.57 ± 1.28; in test [2] (4 mg/kg iv 30 min before ICH, 4 h), 3.25 ± 0.59; in test [2] (setting [20]), 3.08 ± 0.95. Also, the neurological score is given as 1.88 ± 0.64*^Δ in test [2] (setting [21]) and 1.37 ± 0.46**^ΔΔ in test [2] (setting [22]). The brain water content in test [3] (setting [16]) is reported as 62.66 ± 0.66^Δ; in test [3] (setting [17]) it was 63.88 ± 0.55^ΔΔ; in test [3] (setting [18]), 64.86 ± 0.59^ΔΔ; in test [3] (setting [19]) it was 66.33 ± 0.5^ΔΔ; in test [3] (4 mg/kg iv 30 min before ICH, 4 h, in %) it was 62.19 ± 0.54; in test [3] (setting [20]), 62.53 ± 0.42^Δ**. Further, the brain water content in test [3] (setting [21]) is reported as 63.38 ± 0.15^ΔΔ**; in test [3] (setting [22]), 64.62 ± 0.58^ΔΔ**. The histopathological observation result is “obviously reduce tissue edema and inflammatory cell infiltration after cerebral hemorrhage” in test [6] (large dose (4 mg/kg) pretreatment); “could ease the pathological changes above-mentioned in different levels” in test [6] (small dose maleate (2 mg/kg) or nimodipine (0.5 mg/kg) in advance). Further, the NE in test [4] (high dose group (h), 4 mg/kg, ICH rat brain tissue) was 2.37 ± 0.07^ΔΔ ng/ml; in test [4] (low dose group (l), 2 mg/kg, ICH rat brain tissue), 2.78 ± 0.05^ΔΔ ng/ml. Further, the NO in test [5] (2 mg/kg, ICH rat brain tissue (example 12)) is 2.16 ± 0.05^Δ μmol/g pro; in test [5] (4 mg/kg, ICH rat brain tissue), 1.48 ± 0.03^Δ μmol/g pro. Further, the “cerebral edema after cerebral hemorrhage” value in test [7] is reported as “could obviously relieve cerebral edema after cerebral hemorrhage”. Besides, in test [7], the “neural function defect after cerebral hemorrhage (forelimb placement)” value is listed as “improve the neural function defect after cerebral hemorrhage”.
